Patent publication US9296723B2, “NAMPT inhibitors” (AbbVie Inc., priority 2012, dated 2016)

Experiments:
[1] = biological target: T1, NAMPT (Homo sapiens, UniProt P43490); assay: TR-FRET Binding Assay of NAMPT with PRPP; settings: 2 nM NAMPT, 2 nM probe, 200 µM PRPP and 2.5 mM ATP, equilibrated 16 hours
Summary of the method: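 TR-FRET probe displacement with 2 nM NAMPT, 2 nM probe and 1 nM Tb-anti-His antibody in the presence of 200 µM PRPP and 2.5 mM ATP, 2% DMSO (all final). Equilibrated 16 hours before reading to permit possible enzymatic modification of compounds.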

[2] = test system: PC3 cells; assay: NAMPT Cell Proliferation Assay (Cell Titer Glo); type: cell-based; settings: Homo sapiens, PC-3, 120 h, incubated 5 days, cell viability
Summary of the method: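 PC3 cells (500/well, RPMI with 10% heat-inactivated FBS) were exposed to 10-fold compound dilutions from […] for 5 days at 37 °C, 5% CO2. Viability was read with Cell Titer Glo; IC50 from sigmoidal fit of percent inhibition.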

[3] = biological target: T1, NAMPT; assay: Time-Resolved Fluorescence Resonance Energy Transfer (TR-FRET) Binding Assay of NAMPT; settings: 6.8 nM NAMPT, 200 nM probe, equilibrated 3 hours, no substrates
Summary of the method: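 Compound was mixed with enzyme, probe and antibody and equilibrated 3 h at room temperature. TR-FRET read at Ex 337 nm, Em 520/495 nm. Ratios were normalized to controls and fitted to a four-parameter logistic equation for IC50.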

T1 sequence (P43490 whole entry): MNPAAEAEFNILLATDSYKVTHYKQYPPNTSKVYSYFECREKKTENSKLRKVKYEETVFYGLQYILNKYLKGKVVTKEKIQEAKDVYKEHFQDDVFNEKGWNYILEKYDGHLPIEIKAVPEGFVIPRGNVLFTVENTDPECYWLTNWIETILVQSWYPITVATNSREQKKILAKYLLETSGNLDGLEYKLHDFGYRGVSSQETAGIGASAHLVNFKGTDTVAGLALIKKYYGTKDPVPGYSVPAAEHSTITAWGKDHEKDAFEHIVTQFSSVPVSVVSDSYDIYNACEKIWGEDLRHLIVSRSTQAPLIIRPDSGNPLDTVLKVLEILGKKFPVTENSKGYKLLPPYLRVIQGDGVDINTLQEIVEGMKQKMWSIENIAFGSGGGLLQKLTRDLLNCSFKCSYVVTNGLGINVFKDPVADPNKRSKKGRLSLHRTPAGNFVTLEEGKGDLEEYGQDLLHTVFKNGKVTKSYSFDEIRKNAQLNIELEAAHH

Row | Structure (SMILES) | IC50 [1] [µM] | IC50 [2] [µM] | IC50 [3] [µM]
1 | O=C(CC1CC1)N1CC(c2ccc(NC(=O)N3CC(c4cccnc4)C3)cc2)C1 [Example 105, N-{4-[1-(cyclopropylacetyl)azetidin-3-yl]phenyl}-3-(pyridin-3-yl)azetidine-1-carboxamide] | 0.000208 | 0.0609 | 0.0683
2 | O=C(CC(F)(F)F)N1CC(c2ccc(NC(=O)N3CC(c4cccnc4)C3)cc2)C1 [Example 108, 3-(pyridin-3-yl)-N-{4-[1-(3,3,3-trifluoropropanoyl)azetidin-3-yl]phenyl}azetidine-1-carboxamide] | 0.000411 | 0.0815 | 0.122
3 | O=C(Nc1ccc(C2CN(C(=O)C3CC3)C2)cc1)N1CC(c2cccnc2)C1 [Example 109, N-{4-[1-(cyclopropylcarbonyl)azetidin-3-yl]phenyl}-3-(pyridin-3-yl)azetidine-1-carboxamide] | 0.000596 | 0.11 | 0.306
4 | CC[C@H](C)C(=O)N1CC(c2ccc(NC(=O)N3CC(c4cccnc4)C3)cc2)C1 [Example 110, N-(4-{1-[(2S)-2-methylbutanoyl]azetidin-3-yl}phenyl)-3-(pyridin-3-yl)azetidine-1-carboxamide] | 0.000421 | 0.0118 | 0.0353
5 | CC(C)(C)OC(=O)N1CCC(c2ccc(NC(=O)N3CC(c4cccnc4Cl)C3)cc2)CC1 [Example 112, tert-butyl 4-[4-({[3-(2-chloropyridin-3-yl)azetidin-1-yl]carbonyl}amino)phenyl]piperidine-1-carboxylate] | 0.0459 | 0.906 | 0.0435
6 | CC(C)(C)OC(=O)N1CCC(c2ccc(NC(=O)N3CC(c4cnccc4Cl)C3)cc2)CC1 [Example 113, tert-butyl 4-[4-({[3-(4-chloropyridin-3-yl)azetidin-1-yl]carbonyl}amino)phenyl]piperidine-1-carboxylate] | 0.0147 | 0.113 | 0.0758
7 | CCCCC(=O)N1CC(Oc2ccc(NC(=O)N3CC(c4cccnc4)C3)cc2)C1 [Example 117, N-{4-[(1-pentanoylazetidin-3-yl)oxy]phenyl}-3-(pyridin-3-yl)azetidine-1-carboxamide] | 0.000327 | 0.00983 | 0.0188
8 | CCOCC(=O)N1CC(Oc2ccc(NC(=O)N3CC(c4cccnc4)C3)cc2)C1 [Example 119, N-(4-{[1-(ethoxyacetyl)azetidin-3-yl]oxy}phenyl)-3-(pyridin-3-yl)azetidine-1-carboxamide] | 0.000978 | 0.0769 | 0.117
9 | COCC(=O)N1CC(Oc2ccc(NC(=O)N3CC(c4cccnc4)C3)cc2)C1 [Example 120, N-(4-{[1-(methoxyacetyl)azetidin-3-yl]oxy}phenyl)-3-(pyridin-3-yl)azetidine-1-carboxamide] | 0.000689 | 0.078 | 0.145
10 | CCC(C)CC(=O)N1CC(Oc2ccc(NC(=O)N3CC(c4cccnc4)C3)cc2)C1 (stereo not drawn) [Example 121, N-(4-{[1-(3-methylpentanoyl)azetidin-3-yl]oxy}phenyl)-3-(pyridin-3-yl)azetidine-1-carboxamide] | 0.000497 | 0.00773 | 0.0186
11 | CC(C)CCC(=O)N1CC(Oc2ccc(NC(=O)N3CC(c4cccnc4)C3)cc2)C1 [Example 124, N-(4-{[1-(4-methylpentanoyl)azetidin-3-yl]oxy}phenyl)-3-(pyridin-3-yl)azetidine-1-carboxamide] | 0.000375 | 0.00775 | 0.0149
12 | CC1CC1C(=O)N1CC(Oc2ccc(NC(=O)N3CC(c4cccnc4)C3)cc2)C1 (stereo not drawn) [Example 125, N-[4-({1-[(2-methylcyclopropyl)carbonyl]azetidin-3-yl}oxy)phenyl]-3-(pyridin-3-yl)azetidine-1-carboxamide] | 0.000271 | 0.00812 | 0.0293
13 | O=C(CCC(F)(F)F)N1CC(Oc2ccc(NC(=O)N3CC(c4cccnc4)C3)cc2)C1 [Example 126, 3-(pyridin-3-yl)-N-(4-{[1-(4,4,4-trifluorobutanoyl)azetidin-3-yl]oxy}phenyl)azetidine-1-carboxamide] | 0.000401 | 0.00738 | 0.0144
14 | CC(C)C(=O)N1CC(Oc2ccc(NC(=O)N3CC(c4cccnc4)C3)cc2)C1 [Example 127, N-(4-{[1-(2-methylpropanoyl)azetidin-3-yl]oxy}phenyl)-3-(pyridin-3-yl)azetidine-1-carboxamide] | 0.000603 | 0.071 | 0.0934
15 | CCCC(=O)N1CC(Oc2ccc(NC(=O)N3CC(c4cccnc4)C3)cc2)C1 [Example 129, N-{4-[(1-butanoylazetidin-3-yl)oxy]phenyl}-3-(pyridin-3-yl)azetidine-1-carboxamide] | 0.000401 | 0.0113 | 0.04

More lines, now with the values ahead:

Row | IC50 [1] [µM] | IC50 [2] [µM] | IC50 [3] [µM] | Structure (SMILES)
16 | 0.000389 | 0.0951 | 0.188 | O=C(Nc1ccc(C2CN(C(=O)C3CCOC3)C2)cc1)N1CC(c2cccnc2)C1 (stereo not drawn) [Example 104, 3-(pyridin-3-yl)-N-{4-[1-(tetrahydrofuran-3-ylcarbonyl)azetidin-3-yl]phenyl}azetidine-1-carboxamide]
17 | 0.000553 | 0.576 | 0.204 | CC(C)(O)C(=O)N1CC(c2ccc(NC(=O)N3CC(c4cccnc4)C3)cc2)C1 [Example 106, N-{4-[1-(2-hydroxy-2-methylpropanoyl)azetidin-3-yl]phenyl}-3-(pyridin-3-yl)azetidine-1-carboxamide]
18 | 0.000342 | 0.00599 | 0.0123 | O=C(Nc1ccc(C2CN(C(=O)c3ccccc3)C2)cc1)N1CC(c2cccnc2)C1 [Example 107, N-[4-(1-benzoylazetidin-3-yl)phenyl]-3-(pyridin-3-yl)azetidine-1-carboxamide]
19 | 0.000292 | 0.0292 | 0.0539 | CCCC(=O)N1CC(c2ccc(NC(=O)N3CC(c4cccnc4)C3)cc2)C1 [Example 111, N-[4-(1-butanoylazetidin-3-yl)phenyl]-3-(pyridin-3-yl)azetidine-1-carboxamide]
20 | 0.000189 | 0.00811 | 0.0158 | O=C(CC1CC1)N1CC(Oc2ccc(NC(=O)N3CC(c4cccnc4)C3)cc2)C1 [Example 114, N-(4-{[1-(cyclopropylacetyl)azetidin-3-yl]oxy}phenyl)-3-(pyridin-3-yl)azetidine-1-carboxamide]
21 | 0.000744 | 0.135 | 0.0267 | CC(C)(C)OC(=O)N1CCC(c2ccc(NC(=O)N3CC(c4cccnc4F)C3)cc2)CC1 [Example 116, tert-butyl 4-[4-({[3-(2-fluoropyridin-3-yl)azetidin-1-yl]carbonyl}amino)phenyl]piperidine-1-carboxylate]
22 | 0.000324 | 0.0777 | 0.036 | COCCOCC(=O)N1CC(Oc2ccc(NC(=O)N3CC(c4cccnc4)C3)cc2)C1 [Example 118, N-[4-({1-[(2-methoxyethoxy)acetyl]azetidin-3-yl}oxy)phenyl]-3-(pyridin-3-yl)azetidine-1-carboxamide]
23 | 0.000588 | 0.00881 | 0.0166 | O=C(CC1C[C@@H]2CC[C@H]1C2)N1CC(Oc2ccc(NC(=O)N3CC(c4cccnc4)C3)cc2)C1 (stereo partly drawn) [Example 122, N-[4-({1-[(1S,4R)-bicyclo[2.2.1]hept-2-ylacetyl]azetidin-3-yl}oxy)phenyl]-3-(pyridin-3-yl)azetidine-1-carboxamide]
24 | 0.000519 | 0.00836 | 0.0304 | CC(C)(C)C(=O)N1CC(Oc2ccc(NC(=O)N3CC(c4cccnc4)C3)cc2)C1 [Example 128, N-(4-{[1-(2,2-dimethylpropanoyl)azetidin-3-yl]oxy}phenyl)-3-(pyridin-3-yl)azetidine-1-carboxamide]
25 | 0.000559 | 0.0787 | 0.0847 | CCC(=O)N1CC(Oc2ccc(NC(=O)N3CC(c4cccnc4)C3)cc2)C1 [Example 130, N-{4-[(1-propanoylazetidin-3-yl)oxy]phenyl}-3-(pyridin-3-yl)azetidine-1-carboxamide]
26 | 0.000491 | 0.00818 | 0.00772 | CCC(C)(C)C(=O)N1CC(Oc2ccc(NC(=O)N3CC(c4cccnc4)C3)cc2)C1 [Example 131, N-(4-{[1-(2,2-dimethylbutanoyl)azetidin-3-yl]oxy}phenyl)-3-(pyridin-3-yl)azetidine-1-carboxamide]
27 | 0.000634 | 0.00777 | 0.0191 | CC(C)CC(=O)N1CC(Oc2ccc(NC(=O)N3CC(c4cccnc4)C3)cc2)C1 [Example 132, N-(4-{[1-(3-methylbutanoyl)azetidin-3-yl]oxy}phenyl)-3-(pyridin-3-yl)azetidine-1-carboxamide]
28 | 0.000358 | 0.00443 | 0.0132 | CC(C)(C)CC(=O)N1CC(Oc2ccc(NC(=O)N3CC(c4cccnc4)C3)cc2)C1 [Example 133, N-(4-{[1-(3,3-dimethylbutanoyl)azetidin-3-yl]oxy}phenyl)-3-(pyridin-3-yl)azetidine-1-carboxamide]
29 | 0.000317 | 0.0283 | 0.0542 | O=C(CC(F)(F)F)N1CC(Oc2ccc(NC(=O)N3CC(c4cccnc4)C3)cc2)C1 [Example 134, 3-(pyridin-3-yl)-N-(4-{[1-(3,3,3-trifluoropropanoyl)azetidin-3-yl]oxy}phenyl)azetidine-1-carboxamide]
